Reference: PMC1198236, “β-adrenergic receptor activation in immortalized human urothelial cells stimulates inflammatory responses by PKA-independent mechanisms” (Cell communication and signaling : CCS, 2005)

Target: β-adrenergic receptor (β-AR; subtype not determined)

Kd: 0.0324 ± 0.0011 nM
Structure (SMILES): CC(C)(C)NC[C@H](O)COc1cccc2[nH]c(C#N)c(I)c12 [125I-CYP, (-)3-[125I]iodocyanopindolol]
